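Exposure lasted 48 hours, with cells grown in 96-well plates and compounds tested at five concentrations. At the GI50, growth is halved. TGI: concentration producing complete growth inhibition.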
Experiments:
Test in all cases: NCI tumour cell line growth inhibition, 48 h
[1] = system: A549 NSCLC
[2] = system: MCF7 breast
[3] = system: RXF 393 renal
[4] = system: NCI-H23 lung
[5] = system: ACHN renal
[6] = system: A498 renal
[7] = system: NCI-H460 lung
[8] = system: KM12 colon
[9] = system: SR leukemia
[10] = system: LOX IMVI melanoma
[11] = system: MDA-MB-435
[12] = system: U251 CNS
[13] = system: DU-145 prostate
[14] = system: TK-10 renal
[15] = system: K-562 leukemia
[16] = system: SK-MEL-5 melanoma
[17] = system: NCI/ADR-RES ovarian
[18] = system: OVCAR-8 ovarian
[19] = system: MDA-MB-231 breast
[20] = system: IGROV1 ovarian
[21] = system: SN12C renal
[22] = system: OVCAR-5 ovarian
[23] = system: T-47D breast
[24] = system: SNB-19 CNS
[25] = system: NCI-H226 lung
[26] = system: SNB-75 CNS
[27] = system: SF-268 CNS
[28] = system: HCT-116 colon
[29] = system: CCRF-CEM leukemia
[30] = system: UO-31 renal
[31] = system: HCT-15 colon
[32] = system: HL-60(TB) leukemia
[33] = system: UACC-257 melanoma
[34] = system: UACC-62 melanoma
[35] = system: OVCAR-4 ovarian
[36] = system: SK-MEL-28 melanoma
[37] = system: BT-549 breast
[38] = system: HOP-62 NSCLC
[39] = system: SK-OV-3 ovarian
[40] = system: RPMI-8226 leukemia
[41] = system: PC-3 prostate
[42] = system: MOLT-4 leukemia
[43] = system: MALME-3M melanoma
[44] = system: SF-539 CNS
[45] = system: SF-295 CNS
[46] = system: CAKI-1 renal
[47] = system: EKVX NSCLC
[48] = system: M14 melanoma
[49] = system: MDA-MB-468 breast
[50] = system: HOP-92 NSCLC
[51] = system: 786-0 renal
[52] = system: OVCAR-3 ovarian
[53] = system: COLO 205 colon
[54] = system: HCC-2998 colon
[55] = system: SW-620 colon
[56] = system: HT29 colon
[57] = system: NCI-H522 lung

CC[C@]12C=CCN3CC[C@@]4(c5ccc(OC)cc5N(C)[C@H]4[C@@](O)(C(=O)OC)[C@@H]1OC(=O)CCCC[P+](c1ccc(C)cc1)(c1ccc(C)cc1)c1ccc(C)cc1)[C@@H]32
GI50 [1]: 632 nM
TGI [1]: 2760 nM
GI50 [2]: 278 nM
TGI [2]: 1150 nM
GI50 [3]: 329 nM
TGI [3]: 1240 nM
GI50 [4]: 512 nM
TGI [4]: 1500 nM
GI50 [5]: 1800 nM
TGI [5]: 4590 nM
GI50 [6]: 2090 nM
TGI [6]: 5240 nM
GI50 [7]: 498 nM
TGI [7]: 1710 nM
GI50 [8]: 431 nM
TGI [8]: 1480 nM
GI50 [9]: 365 nM
TGI [9]: 1500 nM
GI50 [10]: 541 nM
TGI [10]: 1640 nM
GI50 [11]: 472 nM
TGI [11]: 1520 nM
GI50 [12]: 332 nM
TGI [12]: 1410 nM
GI50 [13]: 728 nM
TGI [13]: 4310 nM
GI50 [14]: 1040 nM
TGI [14]: 2440 nM
GI50 [15]: 300 nM
TGI [15]: 1870 nM
GI50 [16]: 590 nM
TGI [16]: 1240 nM
GI50 [17]: 12000 nM
TGI [17]: 34400 nM
GI50 [18]: 1130 nM
TGI [18]: 2490 nM
GI50 [19]: 238 nM
TGI [19]: 654 nM
GI50 [20]: 351 nM
TGI [20]: 1150 nM
GI50 [21]: 410 nM
TGI [21]: 1380 nM
GI50 [22]: 592 nM
TGI [22]: 1530 nM
GI50 [23]: 305 nM
TGI [23]: 1960 nM
GI50 [24]: 342 nM
TGI [24]: 1320 nM
GI50 [25]: 336 nM
TGI [25]: 1450 nM
GI50 [26]: 242 nM
TGI [26]: 854 nM
GI50 [27]: 692 nM
TGI [27]: 2110 nM
GI50 [28]: 342 nM
TGI [28]: 1460 nM
GI50 [29]: 476 nM
TGI [29]: 2060 nM
GI50 [30]: 2040 nM
TGI [30]: 7110 nM
GI50 [31]: 2020 nM
TGI [31]: 4350 nM
GI50 [32]: 191 nM
TGI [32]: 560 nM
GI50 [33]: 562 nM
TGI [33]: 1900 nM
GI50 [34]: 406 nM
TGI [34]: 1180 nM
GI50 [35]: 636 nM
TGI [35]: 3770 nM
GI50 [36]: 437 nM
TGI [36]: 1600 nM
GI50 [37]: 389 nM
TGI [37]: 1150 nM
GI50 [38]: 731 nM
TGI [38]: 2000 nM
GI50 [39]: 535 nM
TGI [39]: 1390 nM
GI50 [40]: 202 nM
TGI [40]: 1470 nM
GI50 [41]: 313 nM
TGI [41]: 1400 nM
GI50 [42]: 451 nM
TGI [42]: 1780 nM
GI50 [43]: 482 nM
TGI [43]: 1100 nM
GI50 [44]: 588 nM
TGI [44]: 1620 nM
GI50 [45]: 691 nM
TGI [45]: 1870 nM
GI50 [46]: 2850 nM
TGI [46]: 7150 nM
GI50 [47]: 680 nM
TGI [47]: 2590 nM
GI50 [48]: 558 nM
TGI [48]: 1670 nM
GI50 [49]: 150 nM
TGI [49]: 476 nM
GI50 [50]: 295 nM
TGI [50]: 1160 nM
GI50 [51]: 902 nM
TGI [51]: 2370 nM
GI50 [52]: 425 nM
TGI [52]: 1560 nM
GI50 [53]: 200 nM
TGI [53]: 384 nM
GI50 [54]: 416 nM
TGI [54]: 1510 nM
GI50 [55]: 601 nM
TGI [55]: 1960 nM
GI50 [56]: 268 nM
TGI [56]: 783 nM
GI50 [57]: 296 nM
TGI [57]: 1060 nM

— PubChem BioAssay (NCI)
